Data from PubChem BioAssay AID248 (DTP/NCI, 2004).
Toxic doses and inconclusive results are not listed.

Test system: L1210 leukemia ip in BDF1 mice, survival T/C
Assay: NCI In Vivo Anticancer Drug Screen. Data for tumor model L1210 Leukemia (intraperitoneal) in B6D2F1 (BDF1) mice
Conditions: endpoint: mean survival time, higher = longer survival
Summary of the method: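 Transplantable tumor model; survival measured in treated vs vehicle control mice. Value = treated/control.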

[1] = dose: 100.0 mg/kg/injection, schedule: Q01DX001 (ip), vehicle: carboxymethylcellulose (CMC)
[2] = dose: 200.0 mg/kg/injection, schedule: Q01DX001 (ip), vehicle: carboxymethylcellulose (CMC)
[3] = dose: 100.0 mg/kg/injection, schedule: Q04DX003 (ip), vehicle: Klucel (hydroxypropylcellulose) (HPC)
[4] = dose: 200.0 mg/kg/injection, schedule: Q04DX003 (ip), vehicle: Klucel (hydroxypropylcellulose) (HPC)
[5] = dose: 400.0 mg/kg/injection, schedule: Q04DX003 (ip), vehicle: Klucel (hydroxypropylcellulose) (HPC)
[6] = dose: 100.0 mg/kg/injection, schedule: Q01DX001 (ip), vehicle: saline
[7] = dose: 200.0 mg/kg/injection, schedule: Q01DX001 (ip), vehicle: saline
[8] = dose: 400.0 mg/kg/injection, schedule: Q01DX001 (ip), vehicle: saline
[9] = dose: 100.0 mg/kg/injection, schedule: Q01DX009 (ip), vehicle: Klucel (hydroxypropylcellulose) (HPC)
[10] = dose: 200.0 mg/kg/injection, schedule: Q01DX009 (ip), vehicle: Klucel (hydroxypropylcellulose) (HPC)
[11] = dose: 400.0 mg/kg/injection, schedule: Q01DX009 (ip), vehicle: Klucel (hydroxypropylcellulose) (HPC)
[12] = dose: 100.0 mg/kg/injection, schedule: Q04DX003 (ip), vehicle: saline with Tween-80
[13] = dose: 200.0 mg/kg/injection, schedule: Q04DX003 (ip), vehicle: saline with Tween-80

In the case of `CC(CCCO)C1CCC2C3CCC4CC5(CCC4(C)C3CCC12C)OCCO5` (stereo not given), the T/C (dose: 100.0 mg/kg/injection, schedule: Q01DX009 (sc), vehicle: steriod suspending solution) was 104 % of control, the T/C (dose: 200.0 mg/kg/injection, schedule: Q01DX009 (sc), vehicle: steriod suspending solution) was 92 % of control and the T/C (dose: 400.0 mg/kg/injection, schedule: Q01DX009 (sc), vehicle: steriod suspending solution) was 94 % of control.
For `Nc1nc(Cl)c(C=O)c(Cl)n1`, the T/C (dose: 25.0 mg/kg/injection, schedule: Q01DX001 (ip), vehicle: carboxymethylcellulose (CMC)) was 97 % of control, the T/C (dose: 50.0 mg/kg/injection, schedule: Q01DX001 (ip), vehicle: carboxymethylcellulose (CMC)) was 97 % of control and the T/C [1] was 94 % of control. The T/C [2] was 103 % of control.
In the case of `Cc1nc(N)nc2c1CCC(=O)N2`, the T/C [3] was 100 % of control, the T/C [4] was 89 % of control and the T/C [5] was 94 % of control.
With `CCN(CC)CCOC(=O)c1cc2ccccc2s1` the T/C [6] was 94 % of control, the T/C [7] was 102 % of control and the T/C [8] was 96 % of control.
In the case of `NCCCC(=O)NCCCCCCNCCCCCCNC(=O)CCCN`, the T/C (dose: 50.0 mg/kg/injection, schedule: Q01DX001 (ip), vehicle: saline) was 98 % of control and the T/C [6] was 104 % of control.
`O=C1CC(C(F)(F)F)(C(F)(F)F)O1` was tested, and the T/C (dose: 100.0 mg/kg/injection, schedule: Q04DX002 (ip), vehicle: other) was 120 % of control, the T/C (dose: 200.0 mg/kg/injection, schedule: Q04DX002 (ip), vehicle: other) was 102 % of control and the T/C (dose: 400.0 mg/kg/injection, schedule: Q04DX002 (ip), vehicle: other) was 102 % of control.
For `CCNC(=O)OCc1cc(Cl)cc(Cl)c1OC(=O)NCC`, the T/C [1] was 103 % of control, the T/C [2] was 97 % of control and the T/C (dose: 400.0 mg/kg/injection, schedule: Q01DX001 (ip), vehicle: carboxymethylcellulose (CMC)) was 106 % of control.
With `O=C(CCCOc1ccccc1)NCc1ccccc1[N+](=O)[O-]` the T/C (dose: 100.0 mg/kg/injection, schedule: Q01DX001 (ip), vehicle: Klucel (hydroxypropylcellulose) (HPC)) was 92 % of control, the T/C (dose: 200.0 mg/kg/injection, schedule: Q01DX001 (ip), vehicle: Klucel (hydroxypropylcellulose) (HPC)) was 96 % of control and the T/C (dose: 400.0 mg/kg/injection, schedule: Q01DX001 (ip), vehicle: Klucel (hydroxypropylcellulose) (HPC)) was 102 % of control.
`O=C(Nc1ccc(F)cc1)OCCOc1ccc(Cl)cc1Cl` was tested, and the T/C [9] was 105 % of control, the T/C [10] was 110 % of control and the T/C [11] was 109 % of control.
With `Brc1ncc2ccccc2c1Br` the T/C [3] was 108 % of control and the T/C [4] was 94 % of control.
With `COC(=O)C1(C)COP(=O)(Nc2ccc(Br)cc2)OC1` (stereo not given) the T/C [6] was 96 % of control, the T/C [7] was 86 % of control and the T/C [8] was 91 % of control.
For `CC(=Nc1cccnc1)c1ccccc1`, the T/C (dose: 15.0 mg/kg/injection, schedule: Q01DX001 (ip), vehicle: carboxymethylcellulose (CMC)) was 98 % of control and the T/C (dose: 30.0 mg/kg/injection, schedule: Q01DX001 (ip), vehicle: carboxymethylcellulose (CMC)) was 97 % of control.
For `CC(C)(C)NS(=O)(=O)c1ccc(Cl)c([N+](=O)[O-])c1`, the T/C [3] was 95 % of control, the T/C [4] was 93 % of control and the T/C [5] was 90 % of control.
For `O=C(COc1ccc([N+](=O)[O-])cc1Cl)N1CCOCC1`, the T/C [9] was 103 % of control, the T/C [3] was 98 % of control and the T/C [10] was 97 % of control. The T/C [4] was 103 % of control, the T/C [11] was 101 % of control and the T/C [5] was 95 % of control.
With `OC(Cc1cccc(=S)[nH]1)(c1ccccc1)c1ccccc1` the T/C [6] was 98 % of control, the T/C [7] was 93 % of control and the T/C [8] was 91 % of control.
With `CCCn1cnc2c(=S)nc[nH]c21` the T/C (dose: 12.5 mg/kg/injection, schedule: Q01DX Z (ip), vehicle: carboxymethylcellulose (CMC)) was 108 % of control, the T/C (dose: 25.0 mg/kg/injection, schedule: Q01DX Z (ip), vehicle: carboxymethylcellulose (CMC)) was 102 % of control and the T/C (dose: 37.5 mg/kg/injection, schedule: Q04DX003 (ip), vehicle: Klucel (hydroxypropylcellulose) (HPC)) was 97 % of control. The T/C (dose: 50.0 mg/kg/injection, schedule: Q01DX Z (ip), vehicle: carboxymethylcellulose (CMC)) was 104 % of control, the T/C (dose: 75.0 mg/kg/injection, schedule: Q04DX003 (ip), vehicle: Klucel (hydroxypropylcellulose) (HPC)) was 103 % of control and the T/C (dose: 150.0 mg/kg/injection, schedule: Q04DX003 (ip), vehicle: Klucel (hydroxypropylcellulose) (HPC)) was 123 % of control. For the same compound, the T/C (dose: 300.0 mg/kg/injection, schedule: Q04DX003 (ip), vehicle: Klucel (hydroxypropylcellulose) (HPC)) was 151 % of control.
For `O=C(O)c1ccc2ccc3cccnc3c2n1`, the T/C [12] was 96 % of control and the T/C [13] was 113 % of control.
`Cc1cccc(NC(=O)c2ccc(Cl)c(Cl)c2)c1C` was tested, and the T/C [9] was 94 % of control, the T/C [3] was 93 % of control and the T/C [10] was 88 % of control. The T/C [4] was 91 % of control, the T/C [11] was 88 % of control and the T/C [5] was 95 % of control.
`CCCCCCCCCCOP(N)(=O)OCCCCCCCCCC` was tested, and the T/C (dose: 25.0 mg/kg/injection, schedule: Q01DX009 (ip), vehicle: carboxymethylcellulose (CMC)) was 98 % of control, the T/C (dose: 50.0 mg/kg/injection, schedule: Q01DX009 (ip), vehicle: carboxymethylcellulose (CMC)) was 104 % of control and the T/C (dose: 50.0 mg/kg/injection, schedule: Q04DX003 (ip), vehicle: carboxymethylcellulose (CMC)) was 89 % of control. For the same compound, the T/C (dose: 100.0 mg/kg/injection, schedule: Q01DX009 (ip), vehicle: carboxymethylcellulose (CMC)) was 93 % of control, the T/C (dose: 100.0 mg/kg/injection, schedule: Q04DX003 (ip), vehicle: carboxymethylcellulose (CMC)) was 94 % of control and the T/C (dose: 225.0 mg/kg/injection, schedule: Q01DX009 (ip), vehicle: carboxymethylcellulose (CMC)) was 104 % of control.
`CN(N=O)C(=O)NCC1OC(n2cnc3c(N)ncnc32)C(O)C1O` (stereo not given) was tested, and the T/C (dose: 9.0 mg/kg/injection, schedule: Q01DX001 (ip), vehicle: saline with Tween-80) was 95 % of control, the T/C (dose: 13.0 mg/kg/injection, schedule: Q01DX001 (ip), vehicle: saline with Tween-80) was 98 % of control and the T/C (dose: 26.0 mg/kg/injection, schedule: Q01DX001 (ip), vehicle: saline with Tween-80) was 96 % of control. For the same compound, the T/C (dose: 40.0 mg/kg/injection, schedule: Q01DX001 (ip), vehicle: saline with Tween-80) was 96 % of control, the T/C (dose: 60.0 mg/kg/injection, schedule: Q01DX001 (ip), vehicle: saline with Tween-80) was 98 % of control and the T/C (dose: 90.0 mg/kg/injection, schedule: Q01DX001 (ip), vehicle: saline with Tween-80) was 103 % of control. The T/C (dose: 133.0 mg/kg/injection, schedule: Q01DX001 (ip), vehicle: saline with Tween-80) was 101 % of control and the T/C (dose: 200.0 mg/kg/injection, schedule: Q01DX001 (ip), vehicle: saline with Tween-80) was 106 % of control.
For `CCCCCCCCSCC(=O)O`, the T/C [12] was 103 % of control and the T/C [13] was 97 % of control.
In the case of `O=C(NC1CCCCC1)Oc1ccc(-c2ccccc2)cc1Cl`, the T/C [9] was 101 % of control, the T/C [3] was 111 % of control and the T/C [10] was 107 % of control. For the same compound, the T/C [4] was 104 % of control, the T/C [11] was 98 % of control and the T/C [5] was 98 % of control.
In the case of `COc1cccc(OC)c1OS(=O)(=O)c1ccc(COc2ccc([N+](=O)[O-])cc2Cl)cc1`, the T/C [3] was 98 % of control, the T/C [4] was 90 % of control and the T/C [5] was 90 % of control.
`Cc1ccc(C)c(C(C)NC(=O)NCCCl)c1` (stereo not given) was tested, and the T/C [3] was 91 % of control, the T/C [4] was 88 % of control and the T/C [5] was 96 % of control.
With `O=C(CBr)c1cccnc1` the T/C (dose: 6.25 mg/kg/injection, schedule: Q01DX009 (ip), vehicle: saline) was 98 % of control and the T/C (dose: 12.5 mg/kg/injection, schedule: Q01DX009 (ip), vehicle: saline) was 98 % of control.
With `O=C(OCc1ccc2c(c1)OCO2)C1CC1` the T/C (dose: 100.0 mg/kg/injection, schedule: Q04DX002 (ip), vehicle: saline with Tween-80) was 103 % of control and the T/C (dose: 400.0 mg/kg/injection, schedule: Q04DX002 (ip), vehicle: saline with Tween-80) was 101 % of control.
`CCOC(=O)C1SCSCC1=O` (stereo not given) was tested, and the T/C [12] was 102 % of control, the T/C [13] was 98 % of control and the T/C (dose: 400.0 mg/kg/injection, schedule: Q04DX003 (ip), vehicle: saline with Tween-80) was 98 % of control.
For `CCCCCCCCP(=O)(N1CC1C)N1CC1C` (stereo not given), the T/C (dose: 25.0 mg/kg/injection, schedule: Q01DX009 (ip), vehicle: saline) was 98 % of control, the T/C (dose: 50.0 mg/kg/injection, schedule: Q01DX009 (ip), vehicle: saline) was 104 % of control and the T/C (dose: 100.0 mg/kg/injection, schedule: Q01DX009 (ip), vehicle: saline) was 98 % of control. For the same compound, the T/C (dose: 100.0 mg/kg/injection, schedule: Q04DX003 (ip), vehicle: saline) was 91 % of control.
